Laboratory results published in patent US20220218630A1, “METHODS AND FORMULATIONS FOR TREATING VISION DISORDERS” (JeniVision Inc., priority 2019, published 2022).

How the values were obtained:
[1] = test system: monkey longitudinal ciliary muscle; assay: Isolated monkey longitudinal ciliary muscle preparation contracted by carbachol (tissue bath); assay type: cell-based; details: for contractile effects of a further application of carbachol following wash-out: after wash-out of drug, carbachol re-applied; for effect on ciliary muscle tone: drug added cumulatively 10^−8 M to 10^−5 M
Description: A total of 4 longitudinal strips of ciliary muscle were obtained from one monkey eye. Four tissue baths were used concurrently for each experiment. The monkey ciliary muscle preparations were incubated in Krebs bicarbonate buffer, aerated with 95% O2/5% CO2, containing 10^−6 M indomethacin. The preparations were placed under 200 mg tension with adjustment and allowed to equilibrate for 30 minutes. The temperature was maintained at 37° C. throughout the experiment. After equilibration, the four tissue baths received (50 μL×10^−3M) 10^−6 M carbachol (sufficient to produce a mid-level 40-60% maximal response). If 10^−6 M carbachol was insufficient to cause a meaningful contraction, then (50 μL×3×10^−3M) 3×10^−6 M or (50 μL×10^−2M) 10^−5M was used. The contractile response was allowed to become stable. Tissue tension was recorded on a multi-channel electrophysiological recorder.
When cumulative addition of the drug solutions was completed, the drugs were washed-out by flushing through with buffer three times at a selected volume. Four tissue baths again received 10^−6 M (or selected concentration) carbachol and a stable contractile response was established.

[2] = Ocular bioavailability following application to the periorbital skin of cynomolgus monkeys (LC/MS/MS); assay type: in vivo; details: for tiotropium level in ciliary muscle / tiotropium level in plasma: 208 μg to periorbital skin of one eye
Description: The animals were euthanized at predetermined time points post-dosing: 1, 2, 4, 24 hours. A blood sample and ocular tissue specimens were then taken and prepared for LC/MS/MS analysis.

[3] = carbachol pre-contracted preparation

Compound	contractile effects of a further application of carbachol following wash-out [1]	effect on ciliary muscle tone [1, 3]	access to the ciliary muscle ([2]; cynomolgus monkey, in vivo)	systemic exposure ([2]; cynomolgus monkey, in vivo)	magnitude of relaxation ([1]; carbachol pre-contracted preparation, tiotropium compared with salmeterol)	tiotropium level in ciliary muscle ([2]; 1 hr post-dosing)	tiotropium level in plasma ([2]; 1 hr post-dosing)	tiotropium level in ciliary muscle ([2]; 2 hr post-dosing)	tiotropium level in plasma ([2]; 2 hr post-dosing)	tiotropium level in ciliary muscle ([2]; 4 hr post-dosing)	tiotropium level in plasma ([2]; 4 hr post-dosing)	tiotropium level in ciliary muscle ([2]; 24 hr post-dosing)	tiotropium level in plasma ([2]; 24 hr post-dosing)	systemic exposure ([2]; periorbital skin application, non-optimized aqueous formulations)
OCc1cc(C(O)CNCCCCCCOCCCCc2ccccc2)ccc1O (stereo not shown) [salmeterol]	blunted	dose-related decrease	pharmacologically active concentrations	absent	–	–	–	–	–	–	–	–	–	–
C[N+]1(C)[C@@H]2C[C@@H](OC(=O)C(O)(c3cccs3)c3cccs3)C[C@H]1[C@@H]1O[C@@H]12 [tiotropium]	blunted	dose-related decrease	–	–	greater than that recorded for salmeterol	49 nM	4.5 nM	77 nM	BLQ	5.4 nM	BLQ	0 nM	BLQ	minimal
